Values after ≈ are worked out from the molar mass of the structure shown.
How the values were obtained:
SiHa = assay: Growth inhibition of human SiHa cells after 48 hrs by SRB assay; type: functional
PANC-1 [1] = assay: Growth inhibition of human PANC1 cells after 48 hrs by SRB assay; type: functional; details: PANC-1, 48 h
MDA-MB-231 = assay: Growth inhibition of human MDA-MB-231 cells after 48 hrs by SRB assay; type: functional; details: MDA-MB-231, 48 h
HCT-116 [2] = assay: Antiproliferative activity against human HCT116 cells after 48 hrs by MTT assay; type: functional, cell-based; details: HCT-116, 48 h
A549 [3] = assay: Antiproliferative activity against human A549 cells after 48 hrs by MTT assay; type: functional, cell-based; details: A549, 48 h
PANC-1 [4] = assay: Antiproliferative activity against human PANC1 cells after 48 hrs by MTT assay; type: functional, cell-based; details: PANC-1, 48 h
HeLa [5] = assay: Antiproliferative activity against human HeLa cells after 48 hrs by MTT assay; type: functional, cell-based
K562 = assay: Anticancer activity against human K562 cells; type: functional, cell-based
HCT-8 [6] = assay: Antiproliferative activity against human HCT8 cells after 48 hrs by MTT assay; type: functional, cell-based; details: HCT-8, 48 h
HepG2 = assay: Anticancer activity against human HepG2 cells by MTT assay; type: functional, cell-based
A549 [7] = assay: Anticancer activity against human A549 cells by MTT assay; type: functional, cell-based
HT-29 [8] = assay: Anticancer activity against human HT-29 cells by MTT assay; type: functional, cell-based
HeLa [9] = assay: Anticancer activity against human HeLa cells by MTT assay; type: functional, cell-based
HL-60 = assay: Anticancer activity against human HL60 cells by MTT assay; type: functional, cell-based
[10] = Toxicity in mouse xenografted with human CX-1 cells; details: in vivo
HCT-8 [11] = assay: Anticancer activity against human HCT8 cells; type: functional, cell-based
P388 [12] = assay: Anticancer activity against mouse P388 cells; type: functional, cell-based
B16-F10 [13] = assay: Cytotoxicity against mouse B16F10 cells assessed as reduction in cell viability; type: functional, cell-based
HT-29 [14] = assay: Anticancer activity against human HT-29 cells; type: functional, cell-based
HT-29 [15] = assay: Cytotoxicity against human HT-29 cells assessed as reduction in cell viability; type: functional, cell-based
[16] = Toxicity in mouse xenografted with human MB-9812 cells
B16-F10 [17] = assay: Anticancer activity against mouse B16F10 cells; type: functional, cell-based
A549 [18] = assay: Cytotoxicity against human A549 cells assessed as reduction in cell viability; type: functional, cell-based
P388 [19] = assay: Anticancer activity against doxorubicin resistant mouse P388 cells; type: functional, cell-based
[20] = test system: Lewis lung carcinoma cell line; assay: Anticancer activity against mouse LLC cells; type: functional, cell-based
P388 [21] = assay: Cytotoxicity against mouse P388 cells assessed as reduction in cell viability; type: functional, cell-based
P388 [22] = assay: Cytotoxicity against doxorubicin resistant mouse P388 cells assessed as reduction in cell viability; type: functional, cell-based
MCF7 [23] = assay: Anticancer activity against human MCF7 cells; type: functional, cell-based
A549 [24] = assay: Anticancer activity against human A549 cells; type: functional, cell-based
HCT-116 [25] = assay: Cytotoxicity against human HCT116 cells assessed as reduction in cell viability by SRB assay; type: functional, cell-based
MCF7 [26] = assay: Cytotoxicity against human MCF7 cells assessed as reduction in cell viability by SRB assay; type: functional, cell-based
PC-3 = assay: Cytotoxicity against human PC3 cells assessed as reduction in cell viability after 48 hrs by SRB assay; type: functional, cell-based; details: PC-3, 48 h
DU-145 = assay: Cytotoxicity against human DU145 cells assessed as reduction in cell viability after 48 hrs by SRB assay; type: functional, cell-based; details: DU-145, 48 h
HT-1080 = assay: Cytotoxicity against human HT1080 cells assessed as reduction in cell viability; type: functional, cell-based
SW1990 = assay: Cytotoxicity against human SW1990 cells assessed as reduction in cell viability by MTT assay; type: functional, cell-based
HUVEC = assay: Cytotoxicity against human HUVEC cells assessed as reduction in cell viability by MTT assay; type: cell-based
SMMC-7721 = assay: Cytotoxicity against human SMMC7721 cells assessed as reduction in cell viability by MTT assay; type: functional, cell-based

In the case of CCn1cc(C(=O)O)c(=O)c2cnc(N3CCN(C(=O)CCSc4nnnn4-c4ccc(Br)cc4)CC3)nc21, the GI50 (SiHa) is reported as 0.08 µM, the GI50 (PANC-1 [1]) is reported as 0.07 µM and the GI50 (MDA-MB-231) is reported as 0.22 µM.
With CC(C)NCc1cn(-c2cc3c(cc2F)c(=O)c(C(=O)NO)cn3C2CC2)nn1 the IC50 (HCT-116 [2]) was > 10 µM, the IC50 (A549 [3]) was > 10 µM and the IC50 (PANC-1 [4]) was > 10 µM. The IC50 (HeLa [5]) was > 10 µM.
In the case of NC(=O)c1cn([C@@H]2O[C@H](CO)[C@@H](O)[C@H]2O)c2ccc(Nc3ccccc3)cc2c1=O, the IC50 (K562) is reported as 64.1 µM.
Compound COc1ccc(C2CC(c3c(-c4ccccc4)c4ccccc4[nH]c3=O)=NN2c2ccccc2)cc1 (stereo not drawn) has an IC50 (HCT-116 [2]) of 2.2 µM, an IC50 (HeLa [5]) of 2.4 µM and an IC50 (HCT-8 [6]) of 5.6 µM.
With CCOC(=O)c1cn(Cc2cn(-c3ccc(Cl)cc3)nn2)c2ccc(F)cc2c1=O the IC50 (HepG2) was 13.1 to 70.2 µM, the IC50 (A549 [7]) was 13.1 to 70.2 µM and the IC50 (HT-29 [8]) was 13.1 to 70.2 µM. For the same compound, the IC50 (HeLa [9]) was 13.1 to 70.2 µM and the IC50 (HL-60) was 13.1 to 70.2 µM.
In the case of CCn1cc(C(=O)O)c(=O)c2cnc(N3CCN(C(=O)CCSc4nnnn4-c4cc(OC)c(OC)c(OC)c4)CC3)nc21, the GI50 (SiHa) is reported as 0.06 to 2 µM, the GI50 (PANC-1 [1]) is reported as 0.06 to 2 µM and the GI50 (MDA-MB-231) is reported as 0.06 to 2 µM.
O=C(O)c1cn([C@@H]2O[C@H](CO)[C@@H](O)[C@H]2O)c2ccc(Oc3ccccc3)cc2c1=O showed an IC50 (K562) of 64.1 to 198 µM.
Compound CCC[C@H](N)C(=O)NC1CCN(C2C(F)=Cc3c4n(cc(C(=O)O)c3=O)-c3ccccc3OC42)C1 (stereo partly drawn) has an LD50 [10] of 59.6 mg/kg, an IC50 (HCT-8 [11]) of 0.03 to 0.49 µM and an IC50 (P388 [12]) of 0.03 to 0.49 µM. The IC50 (B16-F10 [13]) was 0.01 to 1 µg/mL (≈ 0.0207 to 2.07 µM), the IC50 (HT-29 [14]) was 0.03 to 0.49 µM and the IC50 (HT-29 [15]) was 0.01 to 1 µg/mL (≈ 0.0207 to 2.07 µM). It also gave an LD50 [16] of 59.6 mg/kg, an IC50 (B16-F10 [17]) of 0.03 to 0.49 µM and an IC50 (A549 [18]) of 0.01 to 1 µg/mL (≈ 0.0207 to 2.07 µM). The IC50 (P388 [19]) was 0.03 to 0.49 µM, the IC50 [20] was 0.03 to 0.49 µM and the IC50 (P388 [21]) was 0.01 to 1 µg/mL (≈ 0.0207 to 2.07 µM). It also gave an IC50 (P388 [22]) of 0.01 to 1 µg/mL (≈ 0.0207 to 2.07 µM), an IC50 (MCF7 [23]) of 0.03 to 0.49 µM and an IC50 (A549 [24]) of 0.03 to 0.49 µM.
For CCOC(=O)c1cn([C@@H]2O[C@H](CO)[C@@H](O)[C@H]2O)c2ccc(Nc3ccccc3)cc2c1=O, the IC50 (K562) was 64.1 to 198 µM.
NC(=O)c1cn([C@@H]2O[C@H](CO)[C@@H](O)[C@H]2O)c2ccc(Oc3ccccc3)cc2c1=O showed an IC50 (K562) of 76.8 µM.
N#Cc1c(N)c2cc(-c3nc4ccccc4o3)ccc2[nH]c1=O showed an IC50 (HCT-116 [25]) of 0.0357 µM and an IC50 (MCF7 [26]) of 0.0267 µM.
With O=C(NO)c1cn(C2CC2)c2cc(-n3cc(CN4CCCCC4)nn3)c(F)cc2c1=O the IC50 (HCT-116 [2]) was > 10 µM, the IC50 (A549 [3]) was > 10 µM and the IC50 (PANC-1 [4]) was > 10 µM. The IC50 (HeLa [5]) was > 10 µM.
N#Cc1c(N)c2cc(-c3nc4ccccc4s3)ccc2[nH]c1=O showed an IC50 (HCT-116 [25]) of 0.0616 µM and an IC50 (MCF7 [26]) of 0.0748 µM.
Work on CCOC(=O)c1cn(Cc2cn(-c3ccc(F)cc3)nn2)c2ccc(Cl)cc2c1=O yielded an IC50 (HepG2) of 13.6 to 66 µM, an IC50 (A549 [7]) of 13.6 to 66 µM and an IC50 (HT-29 [8]) of 13.6 to 66 µM. The IC50 (HeLa [9]) was 13.6 to 66 µM and the IC50 (HL-60) was 13.6 to 66 µM.
In the case of O=C(NO)c1cn(C2CC2)c2cc(-n3cc(CN4CCOCC4)nn3)c(F)cc2c1=O, the IC50 (HCT-116 [2]) is reported as > 10 µM, the IC50 (A549 [3]) is reported as > 10 µM and the IC50 (PANC-1 [4]) is reported as > 10 µM. For the same compound, the IC50 (HeLa [5]) was > 10 µM.
Cn1c(=O)cc(Cc2nnc3n2N=C(c2cc4ccccc4oc2=O)CS3)c2ccccc21 showed an IC50 (PC-3) of 43.3 µg/mL (≈ 95.1 µM) and an IC50 (DU-145) of 20.4 µg/mL (≈ 44.8 µM).
Cc1cc2c(n1-c1ccccc1)CCc1cc(S(=O)(=O)c3ccccc3)c(O)nc1-2 showed an IC50 (HT-1080) of 0.4 to 3.6 µM.
COc1ccc2cc3[n+](cc2c1OC)CCc1cc2c(cc1-3)OCO2 [BERBERINE] gave an IC50 (SW1990) of 18.3 to 65.6 µM, an IC50 (HUVEC) of 18.3 to 65.6 µM and an IC50 (SMMC-7721) of 18.3 to 65.6 µM.
CC[C@H](CC[C@@H](C)[C@H]1CC[C@H]2[C@@H]3CC=C4C[C@@H](O)CC[C@]4(C)[C@H]3CC[C@]12C)C(C)C [BETA-SITOSTEROL] showed an IC50 (HT-1080) of 2.5 to 15.7 µM.
For CN(Cc1cnc2nc(N)nc(N)c2n1)c1ccc(C(=O)N[C@@H](CCC(=O)O)C(=O)O)cc1 [METHOTREXATE], the LD50 [10] was 5 mg/kg and the LD50 [16] was 5 mg/kg.

From ChEMBL document CHEMBL4613209, “Quinolone hybrids and their anti-cancer activities: An overview” (Eur J Med Chem, 2019)
